In US7888363B2, “Viral polymerase inhibitors” (Boehringer Ingelheim International GmbH, priority 2003, dated 2011):

target: hepatitis C virus RNA dependant polymerase (NS5B) (Hepatitis C virus genotype 1b, UniProt P26663); assay: Inhibition of NS5B RNA dependent RNA polymerase activity; format: biochemical; conditions: Table 1; HCV NS5B polymerase
Method: A suitable assay is described in the examples.
Inhibition of NS5B RNA Dependent RNA Polymerase Activity
The compounds of the invention were tested for inhibitory activity against the hepatitis C virus RNA dependant polymerase (NS5B), according to protocol described in WO 03/010141

Chain of hepatitis C virus RNA dependant polymerase (NS5B) (P26663 2420-3010): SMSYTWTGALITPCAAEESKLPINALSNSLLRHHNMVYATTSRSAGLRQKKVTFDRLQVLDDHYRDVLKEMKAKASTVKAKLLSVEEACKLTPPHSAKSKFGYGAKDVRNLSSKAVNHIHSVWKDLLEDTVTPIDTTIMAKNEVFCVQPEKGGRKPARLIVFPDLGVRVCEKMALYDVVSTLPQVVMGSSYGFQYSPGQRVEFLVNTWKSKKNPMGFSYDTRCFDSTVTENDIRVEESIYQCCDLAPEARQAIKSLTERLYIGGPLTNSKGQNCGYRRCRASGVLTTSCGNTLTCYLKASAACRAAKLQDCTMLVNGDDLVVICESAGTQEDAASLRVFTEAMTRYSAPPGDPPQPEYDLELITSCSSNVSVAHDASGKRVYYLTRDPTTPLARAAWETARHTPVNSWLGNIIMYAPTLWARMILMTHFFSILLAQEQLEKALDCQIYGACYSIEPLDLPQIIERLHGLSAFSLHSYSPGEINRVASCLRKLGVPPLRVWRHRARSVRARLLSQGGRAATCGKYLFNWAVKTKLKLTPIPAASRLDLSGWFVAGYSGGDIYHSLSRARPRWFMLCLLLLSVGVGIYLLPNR

Question: `O=C(O)c1ccc2c(C3CCCCC3)c(-c3ccoc3)n(CC(=O)N3CCSCC3)c2c1` [Example 1012] was tested. Which IC50 did it give?
Answer: Its IC50 is less than 0.2 µM.

Question: How did the IC50 turn out when `CCN(Cc1ccncc1)C(=O)Cn1c(-c2ccoc2)c(C2CCCCC2)c2ccc(C(=O)O)cc21` [Example 1005] was run?
Answer: The IC50 was 0.2 to 1 µM.

Question: `O=C(O)c1ccc2c(C3CCCCC3)c(-c3csc4ccccc34)n(CC(=O)N3CCC(N4CCCC4)CC3)c2c1` [Example 1048] was tested. Which IC50 did it give?
Answer: The IC50 was 0.2 to 1 µM.

Question: For `CN1CCN(C(=O)Cn2c(-c3ccc(Br)cn3)c(C3CCCCC3)c3ccc(C(=O)O)cc32)CC1` [Example 1134], which IC50 is on record?
Answer: The IC50 was 0.2 to 1 µM.

Question: With `CN(C)C(=O)Cn1c(-c2cc3ccccc3s2)c(C2CCCCC2)c2ccc(C(=O)O)cc21` [Example 1046] as the compound, how does the IC50 read?
Answer: Its IC50 is 1 to 10 µM.

Question: Which IC50 does the source give for `CC1CCN(C(=O)Cn2c(-c3ccoc3)c(C3CCCCC3)c3ccc(C(=O)O)cc32)CC1` [Example 1101] here?
Answer: Its IC50 is 0.2 to 1 µM.

Question: `O=C(Cn1c(-c2ccoc2)c(C2CCCCC2)c2ccc(C(=O)O)cc21)NCc1ccccc1` [Example 1063] was tested. Which IC50 did it give?
Answer: Its IC50 is 0.2 to 1 µM.

Question: How did the IC50 turn out when `O=C(O)c1ccc2c(C3CCCCC3)c(-c3csc4ccccc34)n(CC(=O)N3CCOCC3)c2c1` [Example 1047] was run?
Answer: The IC50 was 1 to 10 µM.

Question: For `O=C(O)c1ccc2c(C3CCCCC3)c(-c3ccoc3)n(CC(=O)N3CCC(O)CC3)c2c1` [Example 1100], which IC50 is on record?
Answer: Its IC50 is less than 0.2 µM.

Question: For `CCN1CCN(C(=O)Cn2c(-c3ccoc3)c(C3CCCCC3)c3ccc(C(=O)O)cc32)CC1` [Example 1120], which IC50 is on record?
Answer: Its IC50 is less than 0.2 µM.

same assay, conditions: Table 2; HCV NS5B polymerase

Question: `O=C(NS(=O)(=O)c1cccc2cnccc12)c1ccc2c(C3CCCCC3)c(-c3ccoc3)n(CC(=O)N3CCOCC3)c2c1` [Example 2039] was tested. Which IC50 did it give?
Answer: Its IC50 is less than 0.2 µM.

Question: How did the IC50 turn out when `CS(=O)(=O)NC(=O)c1ccc2c(C3CCCCC3)c(-c3ccoc3)n(CC(=O)N3CCOCC3)c2c1` [Example 2002] was run?
Answer: Its IC50 is less than 0.2 µM.

Question: With `O=C(NS(=O)(=O)Cc1ccccc1)c1ccc2c(C3CCCCC3)c(-c3ccoc3)n(CC(=O)N3CCOCC3)c2c1` [Example 2003] as the compound, how does the IC50 read?
Answer: The IC50 was less than 0.2 µM.

Question: How did the IC50 turn out when `COC(=O)c1ccccc1S(=O)(=O)NC(=O)c1ccc2c(C3CCCCC3)c(-c3ccoc3)n(CC(=O)N3CCOCC3)c2c1` [Example 2006] was run?
Answer: The IC50 was less than 0.2 µM.

Question: For `O=C(NS(=O)(=O)c1ccccc1Cl)c1ccc2c(C3CCCCC3)c(-c3ccoc3)n(CC(=O)N3CCOCC3)c2c1` [Example 2012], which IC50 is on record?
Answer: The IC50 was less than 0.2 µM.

Question: `O=C(NS(=O)(=O)c1cccc2cccnc12)c1ccc2c(C3CCCCC3)c(-c3ccoc3)n(CC(=O)N3CCOCC3)c2c1` [Example 2024] was tested. Which IC50 did it give?
Answer: The IC50 was less than 0.2 µM.

Question: How did the IC50 turn out when `O=C(NS(=O)(=O)C(F)(F)F)c1ccc2c(C3CCCCC3)c(-c3ccoc3)n(CC(=O)N3CCOCC3)c2c1` [Example 2005] was run?
Answer: Its IC50 is less than 0.2 µM.

Question: With `O=C(NS(=O)(=O)c1ccc([N+](=O)[O-])cc1)c1ccc2c(C3CCCCC3)c(-c3ccoc3)n(CC(=O)N3CCOCC3)c2c1` [Example 2018] as the compound, how does the IC50 read?
Answer: The IC50 was less than 0.2 µM.

same assay, conditions: Table 4; class ranges

Question: With `COc1ccc(CNC(=O)c2ccc3c(C4CCCCC4)c(-c4ccoc4)n(CC(=O)N4CCN(C)CC4)c3c2)cc1OC` [Example 4003] as the compound, how does the IC50 read?
Answer: The IC50 was less than 0.2 µM.

Question: For `O=C(O)C=Cc1ccc2nc(C3(NC(=O)c4ccc5c(C6CCCCC6)c(-c6ccoc6)n(CC(=O)N6CCOCC6)c5c4)CCC3)[nH]c2c1` [Example 4067], which IC50 is on record?
Answer: Its IC50 is less than 0.2 µM.

Question: For `C[C@@H](NC(=O)c1ccc2c(C3CCCCC3)c(-c3ccoc3)n(CC(=O)N(C)C)c2c1)c1ccccc1` [Example 4058], which IC50 is on record?
Answer: Its IC50 is less than 0.2 µM.

Question: How did the IC50 turn out when `CN1CCC(NC(=O)c2ccc3c(C4CCCC4)c(-c4ccoc4)n(CC(=O)N4CCOCC4)c3c2)(c2nc3ccc(C=CC(=O)O)cc3[nH]2)C1` (stereo not drawn) [Example 4068] was run?
Answer: Its IC50 is less than 0.2 µM.

Question: `CN1CCN(C(=O)Cn2c(-c3ccoc3)c(C3CCCCC3)c3ccc(C(=O)NC(C)(C)Cc4ccccc4)cc32)CC1` [Example 4037] was tested. Which IC50 did it give?
Answer: The IC50 was 1 to 10 µM.

Question: Which IC50 does the source give for `O=C(NC1(C(=O)O)CCCCC1)c1ccc2c(C3CCCCC3)c(-c3ccoc3)n(CC(=O)N3CCOCC3)c2c1` [Example 4078] here?
Answer: Its IC50 is 0.2 to 1 µM.

Question: With `COc1cc(CNC(=O)c2ccc3c(C4CCCCC4)c(-c4ccoc4)n(CC(=O)N4CCOCC4)c3c2)ccc1O` [Example 4064] as the compound, how does the IC50 read?
Answer: The IC50 was 0.2 to 1 µM.

Question: With `CN1CCN(C(=O)Cn2c(-c3ccoc3)c(C3CCCCC3)c3ccc(C(=O)NCC4CC4)cc32)CC1` [Example 4034] as the compound, how does the IC50 read?
Answer: Its IC50 is 0.2 to 1 µM.

Question: `CN(C)C(=O)Cn1c(-c2ccoc2)c(C2CCCCC2)c2ccc(C(=O)NCc3ccccn3)cc21` [Example 4053] was tested. Which IC50 did it give?
Answer: Its IC50 is 0.2 to 1 µM.

Question: With `CNc1nc(C2(NC(=O)c3ccc4c(C5CCCCC5)c(-c5ccoc5)n(CC(=O)N5CCC(N6CCCC6)CC5)c4c3)CCC2)cs1` [Example 4103] as the compound, how does the IC50 read?
Answer: The IC50 was less than 0.2 µM.

Question: `CNC(=O)c1ccc2c(C3CCCCC3)c(-c3ccoc3)n(CC(=O)N3CCN(C)CC3)c2c1` [Example 4028] was tested. Which IC50 did it give?
Answer: Its IC50 is 0.2 to 1 µM.

Question: `CN1CCC(NC(=O)c2ccc3c(C4CCCCC4)c(-c4ccoc4)n(CC(=O)N4CCOCC4)c3c2)(c2nc3ccc(C=CC(=O)O)cc3[nH]2)C1` (stereo not drawn) [Example 4069] was tested. Which IC50 did it give?
Answer: Its IC50 is less than 0.2 µM.

Question: With `COc1ccc(CNC(=O)c2ccc3c(C4CCCCC4)c(-c4ccoc4)n(CC(=O)N4CCOCC4)c3c2)cc1OC` [Example 4006] as the compound, how does the IC50 read?
Answer: Its IC50 is less than 0.2 µM.

Question: For `O=C(NCc1ccc2c(c1)OCO2)c1ccc2c(C3CCCCC3)c(-c3ccoc3)n(CC(=O)N3CCOCC3)c2c1` [Example 4045], which IC50 is on record?
Answer: The IC50 was 0.2 to 1 µM.

Question: Which IC50 does the source give for `CC(CNC(=O)c1ccc2c(C3CCCCC3)c(-c3ccoc3)n(CC(=O)N3CCN(C)CC3)c2c1)c1ccccc1` (stereo not drawn) [Example 4024] here?
Answer: Its IC50 is 1 to 10 µM.

Question: `CN1CCN(C(=O)Cn2c(-c3ccoc3)c(C3CCCCC3)c3ccc(C(=O)NCCc4cccnc4)cc32)CC1` [Example 4040] was tested. Which IC50 did it give?
Answer: The IC50 was 0.2 to 1 µM.

Question: For `N#CC1(NC(=O)c2ccc3c(C4CCCCC4)c(-c4ccoc4)n(CC(=O)N4CCC(N5CCCC5)CC4)c3c2)CCC1` [Example 4090], which IC50 is on record?
Answer: Its IC50 is less than 0.2 µM.

same assay, conditions: Table 5; HCV NS5B polymerase

Question: How did the IC50 turn out when `C=CCn1c(-c2ccoc2)c(C2CCCCC2)c2ccc(C(=O)O)cc21` [Example 5004] was run?
Answer: The IC50 was 0.2 to 1 µM.

same assay, conditions: Table 7; class ranges

Question: With `O=C(NCCOCCO)c1ccc2c(c1)c(C1CCCCC1)c(-c1ccoc1)n2CC(=O)N1CCC(N2CCCC2)CC1` [Example 7059] as the compound, how does the IC50 read?
Answer: The IC50 was 1 to 10 µM.

Question: Which IC50 does the source give for `O=C(NC(CCO)c1ccccc1)c1ccc2c(c1)c(C1CCCCC1)c(-c1ccoc1)n2CC(=O)N1CCC(N2CCCC2)CC1` (stereo not drawn) [Example 7049] here?
Answer: The IC50 was 1 to 10 µM.

Question: `COc1ccc(CNC(=O)c2ccc3c(c2)c(C2CCCCC2)c(-c2ccoc2)n3CC(=O)N2CCC(N3CCCC3)CC2)cc1OC` [Example 7028] was tested. Which IC50 did it give?
Answer: The IC50 was 1 to 10 µM.

Question: Which IC50 does the source give for `O=C(N[C@H]1CC[C@H](O)CC1)c1ccc2c(c1)c(C1CCCCC1)c(-c1ccoc1)n2CC(=O)N1CCC(N2CCCC2)CC1` [Example 7041] here?
Answer: Its IC50 is 1 to 10 µM.

Question: For `COc1cc2c(C3CCCCC3)c(-c3ccoc3)n(CC(=O)N3CCOCC3)c2cc1C(=O)O` [Example 7002], which IC50 is on record?
Answer: The IC50 was 0.2 to 1 µM.

Question: How did the IC50 turn out when `Cc1c(C(=O)O)ccc2c(C3CCCCC3)c(-c3ccoc3)n(CC(=O)N3CCC(N4CCCC4)CC3)c12` [Example 7004] was run?
Answer: The IC50 was less than 0.2 µM.

Question: For `O=C(O)COc1cc2c(C3CCCCC3)c(-c3ccoc3)n(CC(=O)N3CCOCC3)c2cc1C(=O)O` [Example 7011], which IC50 is on record?
Answer: Its IC50 is 1 to 10 µM.

Question: How did the IC50 turn out when `O=C(NCc1c(F)cccc1Cl)c1ccc2c(c1)c(C1CCCCC1)c(-c1ccoc1)n2CC(=O)N1CCC(N2CCCC2)CC1` [Example 7036] was run?
Answer: Its IC50 is 1 to 10 µM.

Question: How did the IC50 turn out when `CCN1CCCC1CNC(=O)c1ccc2c(c1)c(C1CCCCC1)c(-c1ccoc1)n2CC(=O)N1CCC(N2CCCC2)CC1` (stereo not drawn) [Example 7013] was run?
Answer: The IC50 was 1 to 10 µM.

Question: Which IC50 does the source give for `CC(C)(C)OC(=O)C(C)(C)NC(=O)c1ccc2c(c1)c(C1CCCCC1)c(-c1ccoc1)n2CC(=O)N1CCC(N2CCCC2)CC1` [Example 7047] here?
Answer: The IC50 was 1 to 10 µM.

Question: `COC(=O)C(Cc1ccc(O)cc1)NC(=O)c1ccc2c(c1)c(C1CCCCC1)c(-c1ccoc1)n2CC(=O)N1CCC(N2CCCC2)CC1` (stereo not drawn) [Example 7057] was tested. Which IC50 did it give?
Answer: The IC50 was 1 to 10 µM.

Question: Which IC50 does the source give for `COc1cc2c(C3CCCCC3)c(-c3ccoc3)n(CC(=O)N3CCC(N4CCCC4)CC3)c2cc1C(=O)O` [Example 7003] here?
Answer: The IC50 was 0.2 to 1 µM.
